Tested on: 299254-011-R-J1-PDC complex spheroid viability
Assay: Anticancer human tumor 299254-011-R-J1-PDC patient-derived melanoma cell line growth inhibition [POLQ]
Conditions: for IC50: curve of first compound; for viability, T/C: stronger effect = lower value
Procedure: Multicellular complex tumor spheroid response to Polymerase (POL) inhibitors (novobiocin, ART-558, RP6685) in combination with a variety of drugs and investigational agents in selected tumor cell lines
The POL inhibitors (novobiocin, ART-558, and RP6685) were evaluated both individually and in combination with standard of care and investigational anticancer small molecules within a complex spheroid model of solid tumors. . Complex spheroids include a stromal component modeled by human endothelial cells (HUVEC) and fibroblasts modeled by human mesenchymal stem cells (MSCs). The concentration ranges selected for each drug and investigational agent were based upon clinically achievable concentrations if the clinical Cmax of the agent was known.
Compounds. The drugs and investigational agents: novobiocin (NSC847541), ART-558 (NSC835418), RP-6685 (NSC848927), peposertib (NSC802822), ceralasertib (NSC780249), elimusertib (NSC800525), camonsertib (NSC841442), AZD-1390 (NSC803789), olaparib (NSC753686), talazoparib (NSC767125), rucaparib (NSC756644), sotorasib (NSC818433), MRTX-1133 (NSC836407), SN-38 (NSC673596), topotecan (NSC609699), epotoside (NSC141540), doxorubicin (NSC123127), gemcitabine (NSC613327), 5-fluorouracil (NSC19893), paclitaxel (NSC125973), vemurafenib (NSC761431), MSA-2 (NSC828583), SN-011 (NSC837082), adavosertib (NSC754352), prexasertib (NSC758257), carboplatin (NSC241240) and oxaliplatin (NSC266046), were obtained from the National Cancer Institute (NCI) Developmental Therapeutics Program Chemical Repository (21). The FDA-approved anticancer drug set is available from the Developmental Therapeutics Program at https://dtp.cancer.gov/organization/dscb/obtaining/. […] The stock solutions were prepared in dimethyl sulfoxide (DMSO, Sigma-Aldrich, St. Louis, MO, cat. D2650), except for the platinum compounds which were prepared in saline (Quality Biological, Gaithersburg, MD, cat. 114-055-101), at 800-fold the tested concentration and stored at -70 degrees C prior to their use. All drugs and investigational agents were tested over a range starting from a high concentration at or near the clinical Cmax and decreasing in half-log increments. If the clinical Cmax for an agent had not been determined, the highest concentration tested was 10 microM, except for SN-38, which was tested at a high concentration of 1 microM.
Cell Culture. All cells were maintained in an incubator at 37 degrees C and 5% CO2 with 95% humidity. The PDC lines were cultured according to standard operating procedures established by the NCI PDMR (https://pdmr.cancer.gov). Table 3 of the manuscript, lists the cell lines along with the number of the three cell types plated to form the mct-spheroids and media for tumor cell growth. After thawing, all PDC lines, except 997537-175-T-J1-PDC and 415267-285-R-J2-PDC, were cultured in Matrigel-coated flasks prepared with a working solution of 1X Ham's F-12 nutrient mix, without supplementation (Thermo Fisher Scientific, cat. 11765054), 100 U/mL penicillin-streptomycin (Thermo Fisher Scientific, cat. 15140122), and 2.5% Matrigel (Corning Inc., Corning, NY, cat. 354248) for the first three passages. The two PDC lines 997537-175-T-J1-PDC and 415267-285-R-J2-PDC were cultured on uncoated flasks. The 857933-349-R-J2-PDC line was cultured in 6C/Colon 1B media containing advanced DMEM/F-12 (Thermo Fisher Scientific, cat. 12634028), 10 mM HEPES (Thermo Fisher Scientific, cat. 15630080), 1X GlutaMAX supplement (Thermo Fisher Scientific, cat. 35050061), 0.1 mg/mL primocin (InvivoGen, San Diego, CA, cat. ant-pm-2), 10% defined fetal bovine serum, heat inactivated (HyClone Laboratories Inc., Logan, UT, cat. SH30070.03HI), 50% L-WRN conditioned media (ATCC, cat. CRL-3276), 1.25 mM N-Acetyl-L-cysteine (Sigma-Aldrich, cat. A9165), 10 mM nicotinamide (Sigma-Aldrich, cat. N0636), 1X B-27 supplement (Thermo Fisher Scientific, cat. 17504044), 1X N-2 supplement (Thermo Fisher Scientific, cat. […]
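Further: spheroids exposed to drugs for one week before measurement.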
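Wherever viability, T/C is given: percent viability relative to DMSO vehicle control taken as 100%.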

## CCCS(=O)(=O)Nc1ccc(F)c(C(=O)c2c[nH]c3ncc(-c4ccc(Cl)cc4)cc23)c1F + Cc1cccc(N(C)C(=O)C2C(O)CCN2c2nc(C)cc(C(F)(F)F)c2C#N)c1
Second compound 0.0316 µM
  IC50: > 10 µM
Second compound 0.1 µM
  IC50: 8.99 µM
Second compound 0.316 µM
  IC50: 9.29 µM
Second compound 1 µM
  IC50: 9.29 µM
Second compound 3.16 µM
  IC50: > 10 µM
Second compound 10 µM
  IC50: > 10 µM
Second compound 0.0316 µM, first compound 0.0316 µM
  viability, T/C: 117%
Second compound 0.0316 µM, first compound 0.1 µM
  viability, T/C: 95.7%
Second compound 0.0316 µM, first compound 0.316 µM
  viability, T/C: 119%
Second compound 0.0316 µM, first compound 1 µM
  viability, T/C: 109%
Second compound 0.0316 µM, first compound 3.16 µM
  viability, T/C: 123%
Second compound 0.0316 µM, first compound 10 µM
  viability, T/C: 50%
Second compound 0.1 µM, first compound 0.0316 µM
  viability, T/C: 104%
Second compound 0.1 µM, first compound 0.1 µM
  viability, T/C: 107%
Second compound 0.1 µM, first compound 0.316 µM
  viability, T/C: 109%
Second compound 0.1 µM, first compound 1 µM
  viability, T/C: 114%
Second compound 0.1 µM, first compound 3.16 µM
  viability, T/C: 115%
Second compound 0.1 µM, first compound 10 µM
  viability, T/C: 44%
Second compound 0.316 µM, first compound 0.0316 µM
  viability, T/C: 107%
Second compound 0.316 µM, first compound 0.1 µM
  viability, T/C: 112%
Second compound 0.316 µM, first compound 0.316 µM
  viability, T/C: 104%
Second compound 0.316 µM, first compound 1 µM
  viability, T/C: 110%
Second compound 0.316 µM, first compound 3.16 µM
  viability, T/C: 103%
Second compound 0.316 µM, first compound 10 µM
  viability, T/C: 46.3%
Second compound 1 µM, first compound 0.0316 µM
  viability, T/C: 93.1%
Second compound 1 µM, first compound 0.1 µM
  viability, T/C: 103%
Second compound 1 µM, first compound 0.316 µM
  viability, T/C: 103%
Second compound 1 µM, first compound 1 µM
  viability, T/C: 107%
Second compound 1 µM, first compound 3.16 µM
  viability, T/C: 109%
Second compound 1 µM, first compound 10 µM
  viability, T/C: 46.4%
Second compound 3.16 µM, first compound 0.0316 µM
  viability, T/C: 110%
Second compound 3.16 µM, first compound 0.1 µM
  viability, T/C: 124%
Second compound 3.16 µM, first compound 0.316 µM
  viability, T/C: 108%
Second compound 3.16 µM, first compound 1 µM
  viability, T/C: 108%
Second compound 3.16 µM, first compound 3.16 µM
  viability, T/C: 117%
Second compound 3.16 µM, first compound 10 µM
  viability, T/C: 52.6%
Second compound 10 µM, first compound 0.0316 µM
  viability, T/C: 100%
Second compound 10 µM, first compound 0.1 µM
  viability, T/C: 110%
Second compound 10 µM, first compound 0.316 µM
  viability, T/C: 113%
Second compound 10 µM, first compound 1 µM
  viability, T/C: 107%
Second compound 10 µM, first compound 3.16 µM
  viability, T/C: 110%
Second compound 10 µM, first compound 10 µM
  viability, T/C: 52.4%
